# Experimental data reported in patent US20160015813A1, “NOVEL AND SYNERGISTIC COMPOSITION OF LECITHIN AND LYSOLECITHIN FOR IMPROVING BIOAVAILABILITY AND SOLUBILITY OF HYDROPHOBIC COMPOUNDS AND EXTRACTS” (priority 2014, published 2016).
# Like-named read-outs stand apart in the source and are kept apart here.
# Experiment: Oral bioavailability study of berberine formulation versus unformulated berberine (berberine concentration in serum)
# Format: in vivo, Sprague Dawley rats
# Details: Sprague Dawley, rat
# Method: The study was conducted to evaluate the bioavailability of orally administered curcuminoid compositions (Table 1 and Example. 2), formulated using a synergistic combination of lecithin and lysolecithin in Sprague Dawley rats. Compositions formulated with lecithin or lysolecithin alone were also tested along with Meriva (Batch No FG-6558). These formulations were prepared using similar procedure described in examples 2 and 3. Total of twelve (12) animals were divided into four groups having three animals in each group. The test substances were administered orally to the animals via oral gavage once at 125 mg/Kg body weight active ingredient equivalent to Active ingredient. Pre-dose or 0th time blood samples were collected from all the animals before dosing the test substance, followed by blood sampling at 0.15, 0.5, 1, 1.5, 2, 4, 8, 12 and 24 hrs after dosing the test substance by sinus orbital plexus under anesthesia. Serum was separated from blood by centrifugation and was subjected to LC-MS/MS analysis for estimation of curcumin concentration in serum samples.
# The similar protocol was used for the evaluation of oral bio-availability of berberine formulation (Example. 3) in comparison with the unformulated berberine and for estimation of berberine concentration in serum samples. The berberine compound and its formulations were supplemented to the animals at a dose equivalent to 100 mg/kg bodyweight of active Berberine.
smiles,measurement,setting,value
"COc1ccc2cc3[n+](cc2c1OC)CCc1cc2c(cc1-3)OCO2 [LI32001, Berberine]",AUC(0-t),"serum, 100 mg/kg bodyweight of active Berberine, single oral administration, read-out: Oral exposures (AUClast)",23.7 ± 7.99 ng·h/mL
same,Cmax,"rats, single oral dose equivalent to 100 mg/kg BW berberine, berberine in serum, 6 animals",4.2 ± 1.85 ng/mL
same,AUC(0-t),"rats, single oral dose equivalent to 100 mg/kg BW berberine, berberine in serum, 6 animals, read-out: AUClast (0-24 h)",23.7 ± 7.99 ng·h/mL
